Where a name gives a salt, the structure may show the parent alone.
Key:
[1] = test system: passive cutaneous anaphylaxis; test: PCA test on the rat, time response curve after oral administration; type: in vivo, rat (male Sprague Dawley); conditions: Rattus norvegicus, oral; for inhibition in vivo at 30 mg/kg: 30 mg/kg/os, read-out: inhibition %; for inhibition in vivo at 1 mg/kg: 1 mg/kg/os
Method: (§1) The serum, obtained from rats actively sensitized with ovalbumin (antigen) and suitably diluted, was injected intradermically into the shaven back of male Sprague Dawley rats (2 wheals per rat).
(§2) The rats were treated intravenously after 24 hours with a solution of ovalbumin and Evans blue. Thirty minutes later they were killed and the diameter and intensity of the blue ring formed at the site of the intradermic injection were measured.
(§3) For each treated group (5 per group) the % inhibition was then calculated with respect to the control group.
(§4) For intravenous administration (2 ml/kg), those compounds in which R1 =H (see formula I) were dissolved in an aqueous 1% NaHCO3 solution whereas for oral administration (4 ml/Kg) they were either suspended in 0.5% carboxymethylcellulose or dissolved in an aqueous 3% NaHCO3 solution.

[2] = test system: passive cutaneous anaphylaxis; test: PCA test on the rat, intravenous administration just before challenge with antigen; type: in vivo, rat (male Sprague Dawley); conditions: for inhibition in vivo at 1 mg/kg / inhibition in vivo at 3 mg/kg / inhibition in vivo at 10 mg/kg / ED50 / inhibition in vivo at 0.3 mg/kg / inhibition in vivo at 30 mg/kg: Rattus norvegicus, iv; for inhibition in vivo at 1 mg/kg / inhibition in vivo at 0.3 mg/kg: read-out: inhibition (%); for ED50: read-out: ED50 (conf. lim) P = 0.05
Method: as §1, §2, §3
The pharmacological screening was effected by administering the compounds of the present invention intravenously and orally.
as §4

mouse = test: Acute toxicity in the mouse, oral administration; type: in vivo
Method: (§5) Acute toxicity was evaluated in the mouse by administering the compounds orally at scalar doses to a maximum of 1000 mg/kg to evaluate the 50% lethal dose (LD50). The compounds were administered in carboxymethylcellulose (0.5%) in a volume of […] to male mice (Swiss stock) of average weight 20 g.

[3] = Acute toxicity in the mouse, oral administration; type: in vivo; conditions: mouse, in vivo, po, 1000 mg/kg, oral, 1000 mg/kg/os; read-out: mortality (%EAD)
Method: as §5

[4] = test system: passive cutaneous anaphylaxis; test: PCA test on the rat, oral administration before challenge with antigen; type: in vivo, rat (male Sprague Dawley); conditions: for inhibition in vivo at 10 mg/kg / inhibition in vivo at 30 mg/kg / inhibition in vivo at 3 mg/kg: read-out: inhibition (%); for ED50: 5 min, Table 2, oral administration, read-out: ED50 (conf. lim) P = 0.05; for ED50 OS/ED50 iv: oral 5 minutes before challenge / i.v. immediately before challenge; for inhibition (%): oral
Method: The serum, obtained from rats actively sensitized with ovalbumin (antigen) and suitably diluted, was injected intradermically into the shaven back of male Sprague Dawley rats (2 wheals per rat). The rats were treated intravenously after 24 hours with a solution of ovalbumin and Evans blue. Thirty minutes later they were killed and the diameter and intensity of the blue ring formed at the site of the intradermic injection were measured. […] The pharmacological screening was effected by administering the compounds of the present invention intravenously and orally. For intravenous administration (2 ml/kg), those compounds in which R1 =H (see formula I) were dissolved in an aqueous 1% NaHCO3 solution whereas for oral administration (4 ml/Kg) they were either suspended in 0.5% carboxymethylcellulose or dissolved in an aqueous 3% NaHCO3 solution.

[5] = 5 min, 5 minutes before challenge
[6] = 0.25 h, 15 minutes before challenge
[7] = 0.5 h, 30 minutes before challenge
[8] = 1 h, 60 minutes before challenge
[9] = 2 h, 120 minutes before challenge
[10] = 1 mg/kg, immediately before challenge
[11] = 3 mg/kg, immediately before challenge
[12] = 10 mg/kg, immediately before challenge
[13] = Rattus norvegicus, po, 10 mg/kg, 5 minutes before challenge
[14] = Rattus norvegicus, po, 30 mg/kg, 5 minutes before challenge
[15] = Rattus norvegicus, po, 5 minutes before challenge
[16] = 3 mg/kg, 5 minutes before challenge
[17] = Rattus norvegicus, po, 3 mg/kg, 5 minutes before challenge

## Cc1ccc(/C=C/C(=O)Nc2nn[nH]n2)s1 [VAL 47-005, N-1H-tetrazol-5-yl-[3-[5-methyl-(2-thienyl)]] acrylamide trans isomer]
[1]; [5]
  inhibition in vivo at 30 mg/kg: 75.5%
[1]; [6]
  inhibition in vivo at 30 mg/kg: 61.4%
[1]; [7]
  inhibition in vivo at 30 mg/kg: 37.5%
[1]; [8]
  inhibition in vivo at 30 mg/kg: 0%
[1]; [9]
  inhibition in vivo at 30 mg/kg: 11.4%
[2]; [10]
  inhibition in vivo at 1 mg/kg: 20.3%
[2]; [11]
  inhibition in vivo at 3 mg/kg: 43.4%
[2]; [12]
  inhibition in vivo at 10 mg/kg: 89.4%
[2]; immediately before challenge
  ED50: 2.99 mg/kg
mouse; mouse, in vivo, po, 1000 mg/kg
  No. (dead): 0
[3]
  mortality: 0%
[4]; [13]
  inhibition in vivo at 10 mg/kg: 43.8%
[4]; [14]
  inhibition in vivo at 30 mg/kg: 75.3%
[4]; [15]
  ED50: 12.4 mg/kg
[4]
  ED50 OS/ED50 iv: 4.13
[4]; [16]
  inhibition (%): 9.6%

## Cc1ccc(/C=C/C(=O)Nc2nn[nH]n2)s1 [VAL 47-005Na, N-1H-tetrazol-5-yl-[3-[5-methyl-(2-thienyl)]] acrylamide sodium salt trans isomer]
[2]; i.v., 1 mg/kg, immediately before challenge
  inhibition (%): 16.5%
[2]; i.v., 3 mg/kg, immediately before challenge
  inhibition (%): 40.7%
[2]; i.v., 10 mg/kg, immediately before challenge
  inhibition (%): 78.0%
[2]; i.v., immediately before challenge
  ED50 (conf. lim) P = 0.05: 3.74 (2.89-4.85) mg/kg/iv
mouse; oral, 1000 mg/kg/os
  mortality (%EAD): 0%
mouse; oral, 1000 mg/kg/os, 8 treated
  No. (dead): 0
[4]; [16]
  inhibition (%): 26.7%
[4]; 10 mg/kg, 5 minutes before challenge
  inhibition (%): 54.7%
[4]; 30 mg/kg, 5 minutes before challenge
  inhibition (%): 65.8%

## Cc1ccc(/C=C\C(=O)Nc2nn[nH]n2)s1 [VAL 47-005cis, N-1H-tetrazol-5-yl-[3-[5-methyl-(2-thienyl)]]acrylamide cis isomer]
[1]; [5]
  inhibition in vivo at 1 mg/kg: 52.4%
[1]; [6]
  inhibition in vivo at 1 mg/kg: 27.5%
[1]; [7]
  inhibition in vivo at 1 mg/kg: 20.6%
[1]; [8]
  inhibition in vivo at 1 mg/kg: 19.6%
[1]; [9]
  inhibition in vivo at 1 mg/kg: 2.1%
[2]; immediately before challenge
  inhibition in vivo at 0.3 mg/kg: 18%
  ED50: 0.89 mg/kg
[2]; [10]
  inhibition in vivo at 1 mg/kg: 54.6%
[2]; [11]
  inhibition in vivo at 3 mg/kg: 82.9%
[2]; i.v., ratio of ED50
  activity greater than its trans isomer (VAL 47-005): about 3 times
mouse; mouse, in vivo, po, 1000 mg/kg
  No. (dead): 0
mouse; oral, mouse
  toxicity (in words): do not determine any toxic effect
[3]
  mortality: 0%
[4]; Rattus norvegicus, po, 0.3 mg/kg, 5 minutes before challenge
  inhibition in vivo at 0.3 mg/kg: 23.6%
[4]; Rattus norvegicus, po, 1 mg/kg, 5 minutes before challenge
  inhibition in vivo at 1 mg/kg: 51.1%
[4]; [17]
  inhibition in vivo at 3 mg/kg: 94.5%
[4]; [15]
  ED50: 0.78 mg/kg
[4]
  ED50 OS/ED50 iv: 0.88

## O=C(/C=C/c1ccc(Br)s1)Nc1nn[nH]n1 [VAL 47-008, N-1H-tetrazol-5-yl-[3-[5-bromo-(2-thienyl)]]-acrylamide trans isomer]
[1]; [5]
  inhibition in vivo at 30 mg/kg: 37.7%
[1]; [6]
  inhibition in vivo at 30 mg/kg: 16%
[1]; [7]
  inhibition in vivo at 30 mg/kg: 10.9%
[1]; [8]
  inhibition in vivo at 30 mg/kg: 3.4%
[1]; [9]
  inhibition in vivo at 30 mg/kg: 2.3%
[2]; [10]
  inhibition in vivo at 1 mg/kg: 0%
[2]; [11]
  inhibition in vivo at 3 mg/kg: 8.6%
[2]; [12]
  inhibition in vivo at 10 mg/kg: 31.9%
[2]; immediately before challenge
  inhibition in vivo at 30 mg/kg: 82.3%
  ED50: 12.8 mg/kg
mouse; oral, 1000 mg/kg/os, 8 treated
  No. (dead): 0
[3]
  mortality: 0%
[4]; [17]
  inhibition in vivo at 3 mg/kg: 32.5%
[4]; [13]
  inhibition in vivo at 10 mg/kg: 26.9%
[4]; [14]
  inhibition in vivo at 30 mg/kg: 43.7%

## O=C(/C=C/c1ccco1)Nc1nn[nH]n1 [VAL 47-010, N-1H-tetrazol-5-yl-[3-(2-furyl)]-acrylamide trans isomer]
[1]; [5]
  inhibition in vivo at 30 mg/kg: 51.4%
[1]; [6]
  inhibition in vivo at 30 mg/kg: 44.8%
[1]; [7]
  inhibition in vivo at 30 mg/kg: 21.9%
[1]; [8]
  inhibition in vivo at 30 mg/kg: 6.6%
[1]; [9]
  inhibition in vivo at 30 mg/kg: 18.6%
[2]; [10]
  inhibition in vivo at 1 mg/kg: 29%
[2]; [11]
  inhibition in vivo at 3 mg/kg: 40.2%
[2]; [12]
  inhibition in vivo at 10 mg/kg: 84.1%
[2]; immediately before challenge
  inhibition in vivo at 30 mg/kg: 95.3%
  ED50: 3.13 mg/kg
mouse; mouse, in vivo, po, 1000 mg/kg
  No. (dead): 2
[3]
  mortality: 25%
[4]; [17]
  inhibition in vivo at 3 mg/kg: 9.6%
[4]; [13]
  inhibition in vivo at 10 mg/kg: 35.9%
[4]; [14]
  inhibition in vivo at 30 mg/kg: 80.9%
[4]; [15]
  ED50: 12.4 mg/kg
[4]
  ED50 OS/ED50 iv: 3.95

## O=C(/C=C/c1cccnc1)Nc1nn[nH]n1 [VAL 47-017, N-1H-tetrazol-5-yl-[3-(3-pyridyl)]-acrylamide trans isomer]
[1]; [5]
  inhibition in vivo at 30 mg/kg: 45%
[1]; [6]
  inhibition in vivo at 30 mg/kg: 7.3%
[1]; [7]
  inhibition in vivo at 30 mg/kg: 1%
[1]; [8]
  inhibition in vivo at 30 mg/kg: 0%
[1]; [9]
  inhibition in vivo at 30 mg/kg: 0%
[2]; immediately before challenge
  inhibition in vivo at 0.3 mg/kg: 45.7%
  ED50: 0.36 mg/kg
[2]; [10]
  inhibition in vivo at 1 mg/kg: 71.6%
[2]; [11]
  inhibition in vivo at 3 mg/kg: 93.9%
[2]; [12]
  inhibition in vivo at 10 mg/kg: 100%
mouse; oral, 1000 mg/kg/os, 8 treated
  No. (dead): 0
[3]
  mortality: 0%
[4]; [17]
  inhibition in vivo at 3 mg/kg: 21.7%
[4]; [13]
  inhibition in vivo at 10 mg/kg: 22.8%
[4]; [14]
  inhibition in vivo at 30 mg/kg: 48.3%

## O=C(/C=C/c1c[nH]c2ccccc12)Nc1nn[nH]n1 [VAL 47-022, N-1H-tetrazol-5-yl-[3-(3-indolyl)]-acrylamide trans isomer]
[1]; [5]
  inhibition in vivo at 30 mg/kg: 62.2%
[1]; [6]
  inhibition in vivo at 30 mg/kg: 52.7%
[1]; [7]
  inhibition in vivo at 30 mg/kg: 33.3%
[1]; [8]
  inhibition in vivo at 30 mg/kg: 19.4%
[1]; [9]
  inhibition in vivo at 30 mg/kg: 8.9%
[2]; immediately before challenge
  inhibition in vivo at 0.3 mg/kg: 3.9%
  ED50: 1.01 mg/kg
[2]; [10]
  inhibition in vivo at 1 mg/kg: 43.4%
[2]; [11]
  inhibition in vivo at 3 mg/kg: 97.1%
mouse; oral, 1000 mg/kg/os, 8 treated
  No. (dead): 0
[3]
  mortality: 0%
[4]; [17]
  inhibition in vivo at 3 mg/kg: 17.8%
[4]; [13]
  inhibition in vivo at 10 mg/kg: 46.6%
[4]; [14]
  inhibition in vivo at 30 mg/kg: 40.8%

## O=C(/C=C/c1cccs1)Nc1nn[nH]n1 [VAL 47-024, N-1H-tetrazol-5-yl-[3-(2-thienyl)] acrylamide trans isomer]
[1]; [5]
  inhibition in vivo at 30 mg/kg: 43.5%
[1]; [6]
  inhibition in vivo at 30 mg/kg: 52.7%
[1]; [7]
  inhibition in vivo at 30 mg/kg: 46.7%
[1]; [8]
  inhibition in vivo at 30 mg/kg: 30.4%
[1]; [9]
  inhibition in vivo at 30 mg/kg: 10.9%
[2]; [10]
  inhibition in vivo at 1 mg/kg: 18.1%
[2]; [11]
  inhibition in vivo at 3 mg/kg: 64.9%
[2]; [12]
  inhibition in vivo at 10 mg/kg: 100%
[2]; immediately before challenge
  ED50: 2.29 mg/kg
mouse; oral, 1000 mg/kg/os, 8 treated
  No. (dead): 0
[3]
  mortality: 0%
[4]; [17]
  inhibition in vivo at 3 mg/kg: 30.2%
[4]; [13]
  inhibition in vivo at 10 mg/kg: 53.8%
[4]; [14]
  inhibition in vivo at 30 mg/kg: 53.3%
